Measured values from patent US20150233949A1, “DETECTION AND MODULATION OF CYTOCHROME C ACETYLATION” (President and Fellows of Harvard College, priority 2008, published 2015).

Key:
129/Sv mice = experiment: Seizure induction by kainic acid injection in mice; format: in vivo, mouse; conditions: 30 mg/kg KA i.p.; WT and SIRT3 KO, female and male mice
Description: Littermate 129/Sv (6-8 weeks old) mice were used for the studies. SIRT3−/− mice were in a 129/sv background. Mice were housed under controlled temperature (25° C.) and light, and fed normal chow.
(§1) To induce seizures, both WT female (n=6) and KO female (n=5) mice and WT male (n=5) and KO male (n=6) mice were injected i.p. with 30 mg/kg KA.

[1] = test system: hippocampus and amygdala neurons; experiment: Loss of hippocampus and amygdala neurons after kainic acid injections; format: in vivo, mouse; conditions: FIG. 14
Description: as §1
The effect of kainic acid injections on memory function was also investigated by examining hippocampus and amygdala neurons.

[2] = test system: primary cerebellar granule neurons; experiment: Cell survival measurement (MTT assay) after kainic acid treatment; format: cell-based, mouse; conditions: T3-/- versus wild-type neurons; 50 uM kainic acid, 4 hr and 24 hrs; FIG. 9
Description: SH-SY5Y cells were cultured in Dulbecco's Modified Eagle's Medium (DMEM) supplemented with 10% Fetal Calf Serum (FCS). SH-SY5Y cells were transfected with Lipofectamine 2000 (Invitrogen, Carlsbad, Calif.). Granule neuron cultures were prepared from cerebella of postnatal day 5 mouse pups. Neurons were placed on polyornithine-coated 96-well plates and grown in Basal Medium Eagle (BME) (Sigma, St. Louis, Mo.) supplemented with 10% calf serum (Hyclone Laboratories, Logan, Utah), 25 mM KCl, 2 mM glutamine, penicillin, and streptomycin. One day after cultures were prepared they were treated with 10 μM of the antimitotic agent cytosine-D-arabinofuranoside (Sigma, St. Louis, Mo.) to prevent the proliferation of non-neuronal cells.
The resistance to kainic acid of primary granule neurons derived from WT and SIRT3 null mice was quantified as the percentage of live cells after a 4 hr and 24 hrs treatment with 50 uM Kainic acid. The quantitation of dead cells upon Kainic acid treatment was carried out using the MTT assay was performed using CellTiter 96 Nonradioactive Cell Proliferation Assay kit (Promega).

Q: Which seizures (129/Sv mice) does the source give for C=C(C)[C@H]1CN[C@H](C(=O)O)[C@H]1CC(=O)O [kainic acid] here?
A: caused seizures in all mice

Q: What about the “loss of hippocampus and amygdala neurons” value [1] of the same molecule?
A: loss of hippocampus and amygdala neurons

Q: What about the cell survival [2] of the same molecule?
A: reduced cell survival
